This note sets out measurements from patent publication US20240066051A1 (priority 2022, published 2024).

Test [1] addresses SARS-CoV-2 S-protein RBD E484Q (Severe acute respiratory syndrome coronavirus 2, UniProt P0DTC2, E484Q). The test is classed as binding.
The target in test [2] is SARS-CoV-2 S-protein RBD L452R + T478K (Severe acute respiratory syndrome coronavirus 2, UniProt P0DTC2, L452R/T478K). It counts as binding.
For test [3], the target named is SARS-CoV-2 S-protein RBD T478K (Severe acute respiratory syndrome coronavirus 2, UniProt P0DTC2, T478K). The test is classed as binding.
Test [4] deals with SARS-CoV-2 S-protein RBD L452R (Severe acute respiratory syndrome coronavirus 2, UniProt P0DTC2, L452R). It counts as binding.
For test [5], the target named is SARS-CoV-2 S-protein RBD N501Y (Severe acute respiratory syndrome coronavirus 2, UniProt P0DTC2, N501Y). The test is classed as binding.
Test [6] deals with S-protein RBD mutants (VOC). The test is classed as binding, SARS-CoV-2.
The test system of test [7] is SARS-CoV-2 pseudotyped viral particles (Delta variant). It counts as binding.
The test system is the same in test [8]. It counts as cell-based.
For test [9], the target named is S-protein RBD L452R+T478K mutant (Severe acute respiratory syndrome coronavirus 2, UniProt P0DTC2, L452R/T478K).

Take heparin: the ka in test [1] was 5.2 × 10^4 1/MS; in [2], 2.3 × 10^4 1/MS; in [3] it was 1.2 × 10^4 1/MS; in [4], 161 1/MS; in test [5], 1.7 × 10^4 1/MS. The kd in test [1] is 0.011 1/S; in test [2] it was 0.014 1/S; in [3], 6.0 × 10^−3 1/S; in [4], 1.3 × 10^−3 1/S; in test [5], 4.2 × 10^−4 1/S. Besides, the “affinity to heparin compared with the WT RBD” value in test [4] was “lower affinity”; in [5], “higher affinity”.

In the case of pentosan polysulfate [PPS], the “inhibition of S-protein RBD mutant-heparin interaction compared with heparin” value is on record as “stronger inhibition” in test [6] and “comparable inhibition to heparin” in test [9]. For the same substance, in [7], the “inhibition of pseudotyped viral particle binding to heparin surface compared with heparin control” value was “stronger inhibition”. The “IC50 for viral inhibition” value in test [8] turned out to be 0.07 µg/mL.

mucopolysaccharide polysulfate [MPS]: the “inhibition of S-protein RBD mutant-heparin interaction compared with heparin” value in test [6] was “stronger inhibition”; in [9], “comparable inhibition to heparin”. In test [7], the “inhibition of pseudotyped viral particle binding to heparin surface compared with heparin control” value is “stronger inhibition”. In test [8], the “IC50 for viral inhibition” value was 0.28 µg/mL.
